The results in this text go back to patent US20090131524A1, “SIALIC ACID ABC TRANSPORTERS IN PROKARYOTES THERAPEUTIC TARGETS” (BUCK INSTITUTE, priority 2005, published 2009).

The assay concerns H. ducreyi. Nature of the assay: growth of H. ducreyi in the presence of sialic acid. It counts as cell-based, Haemophilus ducreyi. On the procedure: H. ducreyi strains were cultured on chocolate agar plates at 35° C. in a 5% CO2 atmosphere as previously described (42). Chocolate agar was supplemented with 1 mM NeuAc (Calbiochem, La Jolla, Calif.) or kanamycin at 20 μg/ml when appropriate. E. coli strains were grown on Luria-Bertani (LB) plates or in LB broth, and were supplemented with kanamycin when appropriate.
In this and previous studies, H. ducreyi were grown on plates containing high levels of sialic acid (22, 50). […] To more quantitatively test whether the presence of high levels of sialic acid affected the growth rate of H. ducreyi, growth curves of H. ducreyi in low (˜0.5 μM, basal level in media) (50), medium (10 μM), and high (1 mM) sialic acid conditions were performed (46). […] Both E. coli and H. influenzae seem to utilize their ability to degrade sialic acid as one mechanism of controlling the intracellular levels of sialic acid (66, 68, 69). As noted above, it is currently unclear if H. ducreyi is able to degrade sialic acid. Another possible mechanism for controlling sialic acid uptake may be through the PBPs. […] Therefore, it is possible that SatA may play an important role in controlling sialic acid uptake in H. ducreyi. One mechanism of control could be that the level of satA expression may be affected by the intracellular levels of sialic acid. […]

In the case of `CC(=O)N[C@H]1[C@H]([C@H](O)[C@H](O)CO)OC(O)(C(=O)O)C[C@@H]1O` (some centres unmarked) [sialic acid, N-acetyl-neuraminic acid], for the setting “grown on plates containing high levels of sialic acid”, the “effect of sialic acid on growth of the bacteria on plates” value is “did not seem to affect the growth”. Moreover, the “growth rate (growth curves)” value (low (~0.5 μM, basal level in media), medium (10 μM) and high (1 mM) sialic acid) is on record as “no differences in the growth rates”.
